# Values of other authors in US11185067B2, “Attractants for rats” (priority 2015, dated 2021).
# Test system: rats
# Conditions: odor-painted glass rods inserted into cage; Zhang et al. 2008, 2011
row,SMILES,effects on rat behavior
1,CCCCCCCC(C)=O [2-nonanone],inducing sniffing or licking
2,CCCCCC(C)=O [2-heptanone],inducing sniffing or licking
3,CCCC(=O)CCC [4-heptanone],inducing sniffing or licking
